Measurements as given in patent US20230181582A1, “COMPOSITIONS AND METHODS FOR TREATING LUNG INJURIES ASSOCIATED WITH VIRAL INFECTIONS” (Qx Therapeutics Inc., priority 2020, published 2023).

Assays:
[1] = test system: MAP3K2/MAP3K3; conditions: cited from earlier work; for inhibition of MAP3K2/MAP3K3-mediated phosphorylation of p47phox: substrate p47phox
[2] = reported; cited from earlier work
[3] = test system: mouse ALI models; conditions: cited from earlier work
[4] = reported; cited from earlier work; remark: listed apart in the source
[5] = test system: patients; conditions: cited from earlier work
[6] = test system: MAP3K2/MAP3K3; assay: Inhibition of MAP3K2/MAP3K3-mediated phosphorylation of substrates (p47phox, MEK5); assay type: biochemical
[7] = test system: mouse coronavirus (MHV-1) induced acute lung injury model; assay: Survival and body weight loss in mouse coronavirus (MHV-1) induced acute lung injury model; assay type: in vivo, A/J mice; conditions: 3 mg/kgbw once daily for 5 days since 24 hr after virus inoculation
[8] = test system: mouse coronavirus (MHV-1) induced acute lung injury model; assay: Pulmonary permeability (FITC-albumin in BAL) in mouse coronavirus (MHV-1) induced acute lung injury model; assay type: in vivo, A/J mice
[9] = test system: mouse ALI models; assay type: in vivo
[10] = test system: neutrophils; conditions: cited from earlier work

## Cc1ccc(NC(=O)c2ccc(CN3CCN(C)CC3)cc2)cc1Nc1nccc(-c2cccnc2)n1 [imatinib]
[1]
  inhibition of MAP3K2/MAP3K3-mediated phosphorylation of p47phox: do not inhibit

## COC(=O)c1ccc2c(c1)NC(=O)/C2=C(\Nc1ccc(N(C)C(=O)CN2CCN(C)CC2)cc1)c1ccccc1 [nintedanib, Methyl (3Z)-3-{[(4-{methyl[(4-methylpiperazin-1-yl)acetyl]amino}phenyl)amino](phenyl)methylidene}-2-oxo-2,3-dihydro-1H-indole-6-carboxylate]
[2]
  protein binding: 97.8%
[1]
  inhibition of MAP3K2/MAP3K3-mediated phosphorylation of p47phox: also inhibits
[3]
  reduction of ALI in mouse models: reduce ALI
[4]
  half-life: 10 to 15 h

## Cc1ccc(Nc2nccc(N(C)c3ccc4c(C)n(C)nc4c3)n2)cc1S(N)(=O)=O [pazopanib, 5-({4-[(2,3-Dimethyl-2H-indazol-6-yl)methylamino]pyrimidin-2-yl}amino)-2-methylbenzenesulfonamide]
[5]; clinical trials
  ILD/pneumonitis reported in patients in the clinical trials: 0.1%
[5]; randomized RCC trial
  patients who developed a pneumothorax: [t]wo of 290
[5]; randomized STS trial (8/240)
  pneumothorax occurrence in patients treated: 3%
[6]
  affinity as p47phox substrate-specific inhibitor for MAP3K2 and 3: low nanomolar
[7]; FIG. 6
  survival rate: does not affect
[7]; FIG. 7
  body weight loss: does not affect
[2]
  protein binding: > 99.5%
[1]; substrate MEK5
  inhibition of other substrates of MAP3K2/MAP3K3 such as MEK5: μM levels
[1]
  inhibition of MAP3K2/MAP3K3-mediated phosphorylation of p47phox: low nM levels
[8]; 2 doses at 3 mg/kgbw retro-orbital (24, 33 hr after 6000 PFU MHV-1), FIG. 2
  pulmonary permeability: significantly reduce
[8]; 3 doses at 3 mg/kgbw retro-orbital (6, 21, 32 hr after 5000 PFU MHV-1), FIG. 1
  pulmonary permeability: significantly reduce
[8]; one dose 3 mg/kgbw at 24 hr after virus inoculation, FIG. 3
  pulmonary permeability: significantly reduce
[8]; one dose 3 mg/kgbw at 48 hr after virus inoculation, FIG. 4
  pulmonary permeability: significantly reduce
[8]; one dose 3 mg/kgbw at 72 hr after virus inoculation, FIG. 5
  pulmonary permeability: negligible effect
[9]; acid and LPS ALI models
  mortality rate in acid and LPS models: impact mortality rate
[9]; acid and LPS ALI models, prophylactic
  prophylactic effect on lung injury in acid and LPS models: prophylactic effect
[9]; two mouse ALI/ARDS models, dependent on MAP3K2/3 and ROS production
  ameliorating ALI in the two mouse ALI/ARDS models: effective in ameliorating ALI
[4]
  bioavailability: 14-21%
  half-life: 30.9 to 31.9 h
[10]
  ROS levels: elevates ROS levels
